The source of these data is BindingDB's records for PubMed 8437101 (University of Pennsylvania, 1993).

Each structure is given as a SMILES string. Where a name gives a salt, the structure may show the parent alone.

The target in this experiment is D(3) dopamine receptor (Rattus norvegicus, UniProt P19020).
D(3) dopamine receptor, sequence (P19020 whole entry): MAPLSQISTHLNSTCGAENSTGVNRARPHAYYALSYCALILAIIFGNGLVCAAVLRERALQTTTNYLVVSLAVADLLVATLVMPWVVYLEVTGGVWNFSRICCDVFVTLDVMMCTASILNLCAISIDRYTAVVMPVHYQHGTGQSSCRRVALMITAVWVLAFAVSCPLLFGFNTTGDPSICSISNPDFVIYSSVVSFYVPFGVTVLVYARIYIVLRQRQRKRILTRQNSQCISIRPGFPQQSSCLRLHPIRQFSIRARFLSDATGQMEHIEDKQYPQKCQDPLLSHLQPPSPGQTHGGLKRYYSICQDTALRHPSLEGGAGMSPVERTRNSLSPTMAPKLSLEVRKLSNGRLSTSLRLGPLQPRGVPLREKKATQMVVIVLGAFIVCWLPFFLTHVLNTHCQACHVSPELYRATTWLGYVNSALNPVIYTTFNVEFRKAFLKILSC

Molecule `CN1CCN(C2=Nc3cc(F)ccc3Cc3ccccc32)CC1` showed a Ki of 255 nM. In the case of `CCCN[C@@H]1CCc2c(OC)cccc2[C@@H]1C` it was 438 nM; in that of `CN1CCN(C2=Nc3ccccc3Cc3ccccc32)CC1`, 919 nM; in that of `OCCN1CCN(CCCN2c3ccccc3Sc3ccc(C(F)(F)F)cc32)CC1` [2-[4-[3-[2-(trifluoromethyl)phenothiazin-10-yl]propyl]piperazin-1-yl]ethanol;hydrochloride], 0.71 nM. In the case of `CCc1cc(Cl)c(OC)c(C(=O)NC[C@@H]2CCCN2CC)c1O` [3-Chloro-5-ethyl-N-((S)-1-ethyl-pyrrolidin-2-ylmethyl)-6-hydroxy-2-methoxy-benzamide] it was 0.23 nM; in that of `CN1CCc2cccc3c2[C@H]1Cc1ccc(O)c(O)c1-3` [APOKYN], 43.9 nM; in that of `COc1cc(N)c(Cl)cc1C(=O)N[C@@H]1C[C@H]2CCC[C@@H](C1)N2Cc1ccc(F)cc1` [BRL-34778], 0.28 nM. On to `Cc1nc2n(c(=O)c1CCN1CCC(C(=O)c3ccc(F)cc3)CC1)CCS2` [CAS_86487-64-1], for which the inhibition constant Ki turned out to be 106 nM.

`CCCN(CCC)C1C=Cc2c(OC)cccc2C1C` (stereo not given) [CAS_5311190] registered a Ki of 36.5 nM. In the case of `O=C(O)c1ccccc1C(=O)Nc1cccc2ccccc12` [NPA,(+)] it was 0.81 nM.

For orientation: Ki means a dissociation constant, usually derived from enzyme kinetics or from competition with a known ligand. A higher Ki goes with weaker binding.
